Source: ChEMBL document CHEMBL4382196, “Unraveling the Prenylation-Cancer Paradox in Multiple Myeloma with Novel Geranylgeranyl Pyrophosphate Synthase (GGPPS) Inhibitors” (J Med Chem, 2018)
Positions count from the first letter of the chain named. The source made the active and inactive calls. The calls are words filed in the database; no cut-off is given here.

Columns and labels:
[1] = test system: RPMI-8226; test: Induction of apoptosis in human RPMI8226 cells after 72 hrs by APC Annexin V/eFluor-780-viability double staining-based FACS analysis; assay type: functional, cell-based
[2] = test system: RPMI-8226; test: cells; conditions: Homo sapiens, RPMI-8226, 72 h
[3] = biological target: T1, Farnesyl pyrophosphate synthase (Homo sapiens, UniProt P14324); test: Inhibition of human FPPS using [14C]-IPP and […] after 10 mins by scintillation counting
T1 sequence (P14324 whole entry): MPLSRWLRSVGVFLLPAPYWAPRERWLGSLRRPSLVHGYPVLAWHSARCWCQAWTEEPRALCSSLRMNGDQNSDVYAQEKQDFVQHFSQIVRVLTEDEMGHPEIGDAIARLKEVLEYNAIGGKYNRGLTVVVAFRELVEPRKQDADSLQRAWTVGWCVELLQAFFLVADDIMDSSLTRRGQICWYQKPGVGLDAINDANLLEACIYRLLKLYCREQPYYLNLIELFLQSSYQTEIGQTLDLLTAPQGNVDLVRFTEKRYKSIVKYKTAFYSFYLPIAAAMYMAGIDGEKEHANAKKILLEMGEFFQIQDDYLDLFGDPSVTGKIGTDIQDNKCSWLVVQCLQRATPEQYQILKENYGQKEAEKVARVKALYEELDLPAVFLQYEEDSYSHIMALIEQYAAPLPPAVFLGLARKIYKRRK

[4] = biological target: Geranylgeranyl pyrophosphate synthase (Homo sapiens, UniProt O95749, Y246D)
[5] = biological target: T2, Geranylgeranyl pyrophosphate synthase (Homo sapiens, UniProt O95749)
T2 sequence (O95749 whole entry): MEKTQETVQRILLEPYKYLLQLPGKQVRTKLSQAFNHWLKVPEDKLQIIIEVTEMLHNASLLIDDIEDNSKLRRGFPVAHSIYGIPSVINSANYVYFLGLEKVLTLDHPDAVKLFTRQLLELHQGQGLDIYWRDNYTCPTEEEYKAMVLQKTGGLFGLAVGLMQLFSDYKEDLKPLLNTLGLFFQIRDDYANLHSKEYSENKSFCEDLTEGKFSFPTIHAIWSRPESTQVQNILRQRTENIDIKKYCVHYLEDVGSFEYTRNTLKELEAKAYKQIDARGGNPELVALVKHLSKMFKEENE

[6] = biological target: T3, Farnesyl pyrophosphate synthase (Homo sapiens) (UniProt P14324); test: Inhibition of human FPPS at 1 uM using [14C]-IPP and […] after 10 mins by scintillation counting relative to control
T3 sequence (whole entry): T1 sequence (P14324 whole entry)

[7] = test system: T4, Geranylgeranyl pyrophosphate synthase (Homo sapiens), O95749 [Y246D]; test: Binding affinity to human N-terminal His6-tagged GGPPS Y246D mutant expressed in Escherichia coli BL21(DE3) assessed as enzyme-inhibitor complex formation by measuring thermal stability in presence of Mg2+ ions by differential scanning fluorimetry
T4 sequence (whole entry): T2 sequence (O95749 whole entry) with Y246D

[8] = biological target: T3, Farnesyl pyrophosphate synthase (Homo sapiens); test: Inhibition of human FPPS at 10 uM using [14C]-IPP and […] after 10 mins by scintillation counting
[9] = biological target: T5, Geranylgeranyl pyrophosphate synthase (Homo sapiens) (UniProt O95749); test: Inhibition of human N-terminal His6-tagged GGPPS expressed in Escherichia coli BL21(DE3) at 10 uM using [14C]-IPP and FPP as substrates after 10 mins by scintillation counting
T5 sequence (whole entry): T2 sequence (O95749 whole entry)

[10] = test system: RPMI-8226; test: Antiproliferative activity against human RPMI8226 cells at 10 uM after 72 hrs by MTT assay; assay type: functional, cell-based
[11] = test system: Hydroxyapatite; test: Binding affinity to bone mineral hydroxyapatite at 50 uM by 1H NMR assay
[12] = test system: NCI/ADR-RES; test: Antiproliferative activity against human NCI-ADR-RES cells after 72 hrs by celltiter-glo luminescent assay; assay type: functional, cell-based
[13] = test system: MIA PaCa-2; test: Antiproliferative activity against human MIAPaCa2 cells at 10 uM after 72 hrs by celltiter-glo luminescent assay; assay type: functional, cell-based
[14] = test system: HCT-116; test: Antiproliferative activity against human HCT116 cells at 10 uM after 72 hrs by celltiter-glo luminescent assay; assay type: functional, cell-based
[15] = test system: A549; test: Antiproliferative activity against human A549 cells at 10 uM after 72 hrs by celltiter-glo luminescent assay; assay type: functional, cell-based
[16] = test system: HT-1080; test: Antiproliferative activity against human HT1080 cells at 10 uM after 72 hrs by celltiter-glo luminescent assay; assay type: functional, cell-based
[17] = test system: T98G; test: Antiproliferative activity against human T98G cells at 10 uM after 72 hrs by celltiter-glo luminescent assay; assay type: functional, cell-based
[18] = test system: HT-29; test: Antiproliferative activity against human HT-29 cells at 10 uM after 72 hrs by celltiter-glo luminescent assay; assay type: functional, cell-based
[19] = test system: RPMI-8226; test: Induction of apoptosis in human RPMI8226 cells at 10 nM after 72 hrs in presence of GGOH by APC Annexin V/eFluor-780-viability double staining-based FACS analysis; assay type: functional, cell-based
[20] = test system: RPMI-8226; test: Induction of apoptosis in human RPMI8226 cells assessed as viable cells at 10 nM after 72 hrs by APC Annexin V/eFluor-780-viability double staining-based FACS analysis (reference value: 87.3%); assay type: functional; conditions: RPMI-8226, 72 h, read-out: Activity
[21] = test system: RPMI-8226; test: Induction of apoptosis in human RPMI8226 cells assessed as early apoptotic cells at 10 nM after 72 hrs by APC Annexin V/eFluor-780-viability double staining-based FACS analysis (reference value: 3.31%); assay type: functional
[22] = test system: RPMI-8226; test: Induction of apoptosis in human RPMI8226 cells assessed as necrotic cells at 10 nM after 72 hrs by APC Annexin V/eFluor-780-viability double staining-based FACS analysis (reference value: 3.60%); assay type: functional
[23] = test system: RPMI-8226; test: Induction of apoptosis in human RPMI8226 cells assessed as late apoptotic cells at 10 nM after 72 hrs by APC Annexin V/eFluor-780-viability double staining-based FACS analysis (reference value: 5.80%); assay type: functional

Sequence of Geranylgeranyl pyrophosphate synthase (Homo sapiens, UniProt O95749, Y246D) (O95749 whole entry Y246D): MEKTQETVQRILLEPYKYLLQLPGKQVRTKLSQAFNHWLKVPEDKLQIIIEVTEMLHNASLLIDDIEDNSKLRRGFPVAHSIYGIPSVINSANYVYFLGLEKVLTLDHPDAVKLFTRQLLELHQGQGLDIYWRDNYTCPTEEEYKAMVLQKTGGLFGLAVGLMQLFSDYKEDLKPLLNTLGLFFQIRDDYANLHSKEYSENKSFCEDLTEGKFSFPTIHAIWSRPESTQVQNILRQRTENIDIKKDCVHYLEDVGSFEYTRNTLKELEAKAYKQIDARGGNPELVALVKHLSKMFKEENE

Cc1ccc(C(=O)Nc2cccc(-c3nc(NC(P(=O)(O)O)P(=O)(O)O)c4ccsc4n3)c2)cc1
Activity [1]: Dose-dependent effect | EC50 [2]: 720 nM | IC50 [3]: 2600 nM

COc1ccc(C(=O)Nc2cccc(-c3nc(NC(P(=O)(O)O)P(=O)(O)O)c4ccsc4n3)c2)cc1
IC50 [4]: 92 nM

O=P(O)(O)C(Nc1ncnc2sc(-c3ccc(C(F)(F)F)cc3)cc12)P(=O)(O)O
EC50 [2]: > 100000 nM | IC50 [5]: 1500 nM

O=C(Nc1cccc(-c2nc(NC(P(=O)(O)O)P(=O)(O)O)c3ccsc3n2)c1)c1ccc(F)cc1
inhibition [6]: 20% | Activity [7]: Active | IC50 [5]: 42 nM | IC50 [3]: > 1000 nM

O=C(Nc1cccc(-c2cc3c(NC(P(=O)(O)O)P(=O)(O)O)ncnc3s2)c1)c1ccccc1
inhibition [8]: inactive | inhibition [9]: inactive | Activity [10]: inactive

O=P(O)(O)C(O)(Cc1ccccn1)P(=O)(O)O
EC50 [2]: 11000 nM | Activity [11]: Active

COc1ccc(NC(=O)c2cccc(-c3nc(NC(P(=O)(O)O)P(=O)(O)O)c4ccsc4n3)c2)cc1
Activity [12]: Active | EC50 [2]: 230 nM | Activity [13]: Active | Activity [14]: Active | Activity [15]: Active | Activity [16]: Active | Activity [17]: Active | IC50 [5]: 75 nM | IC50 [3]: 1300 nM | Activity [18]: Active

CC(C)C[C@H](NC(=O)[C@H](Cc1ccccc1)NC(=O)c1cnccn1)B(O)O [BORTEZOMIB]
Activity [19]: Active | viability at 0.01 µM [20]: 0.92% | Activity [21]: 0.26% | Activity [22]: 20.1% | Activity [23]: 78.7%
